Test results as given in patent US7795242B2, “Methods and compositions for immunomodulation” (The Brigham and Women's Hospital, Inc., priority 2003, dated 2010).

What was measured:
T cell line IL1AP = assay: IL-2 release by PPBF-reactive T cell line IL1AP with DC as APC (HT-2 bioassay); format: cell-based, human; settings: IL-2 measured 24 h after stimulation; FIG. 7A
Method: Because αGalCer was previously known to function as a potent activator of CD1d-restricted T cell clones known as NK T cells, we sought to determine whether PPBF-reactive T cells and αGalCer-reactive T cells cross react. The PPBF-reactive T cell line IL1AP and the αGalCer-reactive T cell clone J3N.5 were each stimulated with αGalCer and PPBF using DC as APC. IL-2 release was measured 24 h after stimulation. The IL-2 concentration in 50 μl of culture supernatants, harvested 24 hours after T cell stimulation, was determined by adding 10^4 IL-2 starved HT-2 cells in […] medium, and a 6 h pulse after a 24 h incubation.

CD1d [1] = molecular target: T1, CD1d (Homo sapiens, UniProt P15813); assay: Competition with αGalCer-mediated NK T cell activation on plate-bound recombinant CD1d; format: cell-based; settings: FIG. 8; for block of αGalCer-mediated NK T activation: compound added in excess to plate-bound recombinant CD1d
Excerpt: Next, to determine whether PPBF could compete with αGalCer-mediated NK T cell responses, we used an in vitro assay of PPBF added to recombinant CD1d proteins bound to a plate.

IL1AP T cells = assay: Proliferative response of IL1AP T cells stimulated with antigen and dendritic cells ([3H]-thymidine incorporation); format: cell-based, human; settings: for stimulation (proliferation) of IL1AP T cells: DC as APC, FIG. 1A, 2B, 6E, 7A
Method: The antigens provided herein were identified with T-cell activation assays performed using purified fractions in order to determine their relative ability to activate T-cells. These assays were carried out essentially as described in U.S. Pat. Nos. 5,679,347; 5,853,737; and 6,238,676, and in Rosat et al. J. Immunol. 162:366-371, 1999. Other procedures are well-known in the art.
To generate CD1-restricted T cells that recognize novel antigens, we stimulated human peripheral blood lymphocytes using a method that reduces the outgrowth of MHC-restricted T cells and favors the detection of CD1-restricted T cells. This involves the repeated stimulation of lymphocytes with lipid antigens with monocyte-derived dendritic cells (DC) from donors that differ in their MHC protein expression, so that T cells responding to DC with a given MHC class I or II molecule will not be repeatedly stimulated and therefore […] in T cell lines produced after many rounds of stimulation. DCs were prepared from the peripheral blood of healthy donors by centrifugation over Ficoll-Hypaque, adherence of the mononuclear cells to plastic tissue culture flasks, culture of adherent cells with 300 U/ml GM-CSF and 200 U/ml IL-4 for 3 days, followed by irradiation (3300 R).
DC and T cells were cultured at a 1:5 ratio in the presence of 1 μg/ml LKKRRL mixture to yield T cell lines. T cells lines were used to generate clones by culturing T cells at approximately 1 cell per well with phytohemagglutinin, peripheral blood mononuclear cells, transformed B cell lines and 2 nM IL-2. This protocol yielded a polyclonal T cell line IL1AP and several clones derived there from, which are named IL1AP.15, IL1AP.31.
To assay the proliferative responses of IL1AP T cells, 5*10^4 Polyclonal IL1AP T cells were stimulated with 3*10^4 DC and LKKRRL mixture (FIG. 1A). […] C1R cells transfected with the vector pSRα-NEO, containing the cDNAs encoding human CD1a, CD1b, CD1c, CD1d, or no insert (C1R mock) were used as alternative APC for the stimulation of polyclonal T cells with LKKRRL mixture (FIG. 1C). […]

J.RT3.ABd cells = assay: IL-2 release by J.RT3 cells transfected with IL1AP TCR α and β chains (J.RT3.ABd); format: cell-based; settings: FIG. 11A
Method: We transfected the full-length TCR α and β chains from IL1AP cells into J.RT3 cells to generate a TCR-expressing reporter cell line (J.RT3.ABd). […] To determine whether PPBF could activate through intact CD3 complexes that were reconstituted by transfection of a TCR with irrelevant antigen specificity, J.RT3-T3.5 cells transfected with the TCR α and β chains of the CD8-2 cell line (J.RT3-CD8-2) that recognizes the mycobacterial lipopeptides DDM were tested for IL-2 release upon stimulation with DDM or PPBF.

CD1d [2] = molecular target: T1, CD1d; settings: Im et al., J Biol Chem., 279:299-310, 2004; cited from earlier work
polyclonal lymphocytes = assay: Proliferative response of polyclonal lymphocytes and T cell clones; format: cell-based, human; settings: data not shown
Method: To determine whether PPBF non-selectively activated polyclonal lymphocyte populations or selectively activated antigen-specific clones present at low precursor frequency in vivo, polyclonal lymphocytes were tested for their proliferative response to PPBF.

Compound: CCCCCCCCCCCCCCCCCCCCCCCCCC(=O)N[C@@H](CO[C@H]1O[C@H](CO)[C@H](O)[C@H](O)[C@H]1O)[C@H](O)[C@H](O)CCCCCCCCCCCCCC [αGalCer, α-galactosyl ceramide]
- recognition by IL1AP T cells (IL-2 release) (T cell line IL1AP): did not recognize αGalCer

Compound: 3-methyl-PPBF
- degree and titer of inhibition of αGalCer-mediated NK T activation compared with 2,6-ANS (CD1d [1]): comparable to that of 2,6-anilonapthalene sulfonic acid
- block of αGalCer-mediated NK T activation (CD1d [1]): substantially block αGalCer-mediated NK T activation in a dose-dependent manner
- capacity to stimulate IL1AP T cell proliferation relative to PPBF (IL1AP T cells; FIG. 6E): stimulated T cells more potently than PPBF

Compound: Cc1c(C)c(S(=O)(=O)Oc2ccccc2)c(C)c2c1OC(C)(C)C2 [PPBF, phenyl-2,2,4,6,7-pentamethyldihydrobenzofuran-5-sulfonyl]
- IL-2 production by J.RT3.ABd cells upon stimulation (J.RT3.ABd cells): conferred the ability to produce IL-2 upon stimulation with PPBF
- degree and titer of inhibition of αGalCer-mediated NK T activation compared with 2,6-ANS (CD1d [1]): comparable to that of 2,6-anilonapthalene sulfonic acid
- block of αGalCer-mediated NK T activation (CD1d [1]): substantially block αGalCer-mediated NK T activation in a dose-dependent manner
- stimulation (proliferation) of IL1AP T cells (IL1AP T cells): Only the T cell line IL1AP and clones derived therefrom were activated by PPBF
- stimulation (proliferation) of IL1AP T cells (IL1AP T cells; listed as Synthetic PPBF): potently stimulate

Compound: O=S(=O)(O)c1ccc2cc(Nc3ccccc3)ccc2c1 [2,6-anilonapthalene sulfonic acid]
- binding to CD1d (CD1d [2]): has been shown to bind CD1d

Compound: phytohemagglutinin [reference compound]
- activation of polyclonal T cells and T cell clones (proliferative response) (polyclonal lymphocytes): activated by the mitogen phytohemagglutinin
